Reference: ChEMBL document CHEMBL5046301, “pH-Responsive Antimicrobial Peptide with Selective Killing Activity for Bacterial Abscess Therapy” (J Med Chem, 2022)
Active and inactive are the calls of the source. The rule behind the calls is not given here.

Columns and labels:
[1] = test system: Mus musculus; assay: Antiinflammatory activity in ICR cutaneous abscess mouse model assessed as reduction in IL-2 expression in serum at 5 mg/kg,ip administered twice a day measured after 72 hrs by ELISA (reference value: 1.53 +/ 0.06 10^3pg/ml); type: functional
[2] = test system: Mus musculus; assay: Antiinflammatory activity in ICR cutaneous abscess mouse model assessed as reduction in TNF-alpha expression in serum at 5 mg/kg,ip administered twice a day measured after 72 hrs by ELISA (reference value: 1.01 +/ 0.46 10^3 pg/ml); type: functional
[3] = test system: Mus musculus; assay: Antiinflammatory activity in ICR cutaneous abscess mouse model assessed as reduction in IL-1alpha expression in serum at 5 mg/kg,ip administered twice a day measured after 72 hrs by ELISA (reference value: 9.9 +/ 0.42 10^1pg/ml); type: functional
[4] = test system: Pseudomonas aeruginosa; assay: Antimicrobial activity against Pseudomonas aeruginosa ATCC 27853 infected in ICR cutaneous abscess mouse model assessed as reduction in necrotic tissue area in infection site at 5 mg/kg,ip administered twice a day measured after 3 days by hematoxylin and eosin staining based analysis; type: functional, organism-based; details: time 3.0 day
[5] = test system: Mus musculus; assay: Antiinflammatory activity in ICR cutaneous abscess mouse model assessed as reduction in IL-1beta expression in serum at 5 mg/kg,ip administered twice a day measured after 72 hrs by ELISA (reference value: 9.9 +/ 0.47 10^1pg/ml); type: functional
[6] = test system: Pseudomonas aeruginosa; assay: Antimicrobial activity against Pseudomonas aeruginosa ATCC 27853 infected in ICR cutaneous abscess mouse model assessed as complete epidermis structure at 5 mg/kg,ip administered twice a day measured after 3 days by hematoxylin and eosin staining based analysis; type: functional, organism-based; details: time 3.0 day
[7] = test system: Salmonella typhimurium; assay: Antibacterial activity against Salmonella typhimurium ATCC 14028 assessed as inhibition of bacterial growth at pH 6.5 incubated for 24 hrs by NCCLS protocol based method; type: functional, Salmonella enterica subsp. enterica serovar Typhimurium; details: Salmonella enterica
[8] = test system: Staphylococcus aureus; assay: Antibacterial activity against Staphylococcus aureus ATCC 29213 assessed as inhibition of bacterial growth at pH 7.4 incubated for 24 hrs by NCCLS protocol based method; type: functional
[9] = test system: Staphylococcus epidermidis; assay: Antibacterial activity against Staphylococcus epidermidis ATCC 12228 assessed as inhibition of bacterial growth at pH 6.5 incubated for 24 hrs by NCCLS protocol based method; type: functional
[10] = test system: Staphylococcus aureus; assay: Antibacterial activity against methicillin-resistant Staphylococcus aureus ATCC 43300 assessed as inhibition of bacterial growth at pH 7.4 incubated for 24 hrs by NCCLS protocol based method; type: functional
[11] = Hemolytic activity in human RBC assessed as hemoglobin release at pH 7.4 incubated for 1 hr; type: toxicity, cell-based; details: erythrocyte, pH 7.4, 1 h
[12] = test system: Salmonella typhimurium; assay: Antibacterial activity against Salmonella enterica subsp. enterica serovar Typhimurium C77-31 assessed as inhibition of bacterial growth at pH 6.5 incubated for 24 hrs by NCCLS protocol based method; type: functional
[13] = test system: Staphylococcus aureus; assay: Antibacterial activity against methicillin-resistant Staphylococcus aureus ATCC 43300 assessed as inhibition of bacterial growth at pH 6.5 incubated for 24 hrs by NCCLS protocol based method; type: functional
[14] = test system: Salmonella typhimurium; assay: Antibacterial activity against Salmonella enterica subsp. enterica serovar Typhimurium C77-31 assessed as inhibition of bacterial growth at pH 7.4 incubated for 24 hrs by NCCLS protocol based method; type: functional
[15] = test system: Staphylococcus aureus; assay: Antibacterial activity against Staphylococcus aureus ATCC 25923 assessed as inhibition of bacterial growth at pH 7.4 incubated for 24 hrs by NCCLS protocol based method; type: functional
[16] = test system: Staphylococcus epidermidis; assay: Antibacterial activity against Staphylococcus epidermidis ATCC 12228 assessed as inhibition of bacterial growth at pH 7.4 incubated for 24 hrs by NCCLS protocol based method; type: functional
[17] = test system: Staphylococcus aureus; assay: Antibacterial activity against Staphylococcus aureus ATCC 25923 assessed as inhibition of bacterial growth at pH 6.5 incubated for 24 hrs by NCCLS protocol based method; type: functional
[18] = test system: Escherichia coli; assay: Antibacterial activity against Escherichia coli ATCC 25922 assessed as inhibition of bacterial growth at pH 6.5 incubated for 24 hrs by NCCLS protocol based method; type: functional
[19] = Cytotoxicity against mouse RAW264.7 cells assessed as inhibition of cell growth at pH 6.5 measured after 24 hrs by MTT assay; type: toxicity, cell-based
[20] = test system: Pseudomonas aeruginosa; assay: Antibacterial activity against Pseudomonas aeruginosa ATCC 27853 assessed as inhibition of bacterial growth at pH 6.5 incubated for 24 hrs by NCCLS protocol based method; type: functional
[21] = Hemolytic activity against human RBC assessed as hemoglobin release at pH 6.5 incubated for 1 hrs; type: toxicity, cell-based; details: erythrocyte, pH 6.5, 1 h
[22] = test system: Escherichia coli; assay: Antibacterial activity against Escherichia coli ATCC 25922 assessed as inhibition of bacterial growth at pH 7.4 incubated for 24 hrs by NCCLS protocol based method; type: functional
[23] = test system: Pseudomonas aeruginosa; assay: Antibacterial activity against Pseudomonas aeruginosa ATCC 27853 assessed as inhibition of bacterial growth at pH 7.4 incubated for 24 hrs by NCCLS protocol based method; type: functional
[24] = test system: Salmonella typhimurium; assay: Antibacterial activity against Salmonella typhimurium ATCC 14028 assessed as inhibition of bacterial growth at pH 7.4 incubated for 24 hrs by NCCLS protocol based method; type: functional, Salmonella enterica subsp. enterica serovar Typhimurium; details: Salmonella enterica
[25] = test system: Staphylococcus aureus; assay: Antibacterial activity against Staphylococcus aureus ATCC 29213 assessed as inhibition of bacterial growth at pH 6.5 incubated for 24 hrs by NCCLS protocol based method; type: functional
[26] = Cytotoxicity against mouse RAW264.7 cells assessed as inhibition of cell growth at pH 7.4 measured after 24 hrs by MTT assay; type: toxicity, cell-based
[27] = Ratio of MHC for hemolytic activity against human RBC assessed as hemoglobin release at pH 6.5 to MHC for hemolytic activity against human RBC assessed as hemoglobin release at pH 7.4; type: toxicity, cell-based, Erythrocyte; details: human red blood cells (RBC)

Substance | MIC [7] | MIC [8] | MIC [9] | MIC [10] | MHC10 [11] | MIC [12] | MIC [13] | MIC [14] | MIC [15] | MIC [16] | MIC [17] | MIC [18] | IC50 at 24 h [19] | MIC [20] | MHC10 [21] | MIC [22] | MIC [23] | MIC [24] | MIC [25] | IC50 at 24 h [26] | other results
COLISTIN | – | – | – | – | – | – | – | – | – | – | – | – | – | – | – | – | – | – | – | – | Activity [1]: 1.11 10^3pg/ml; Activity [2]: 8.06 10^2pg/ml; Activity [3]: 7.95 10^1pg/ml; Activity [4]: Active; Activity [5]: 7.23 10^1pg/ml; Activity [6]: Active
H-DLDHLIPHVIHGLVHAIHH-NH2 | > 64 µM | > 64 µM | > 64 µM | > 64 µM | > 128 µM | > 64 µM | > 64 µM | > 64 µM | > 64 µM | > 64 µM | > 64 µM | 32 µM | > 128 µM | > 64 µM | > 128 µM | > 64 µM | > 64 µM | > 64 µM | > 64 µM | > 128 µM | –
H-ELEHLIPHVIHGLVHAIHH-NH2 | > 64 µM | > 64 µM | > 64 µM | > 64 µM | > 128 µM | > 64 µM | > 64 µM | > 64 µM | > 64 µM | > 64 µM | > 64 µM | 32 µM | > 128 µM | > 64 µM | > 128 µM | > 64 µM | > 64 µM | > 64 µM | > 64 µM | > 128 µM | –
H-FLDHLIPHVIHGLVHAIHH-NH2 | 16 µM | > 64 µM | > 64 µM | > 64 µM | > 128 µM | 16 µM | > 64 µM | > 64 µM | > 64 µM | > 64 µM | > 64 µM | 4 µM | 67.9 µM | 8 µM | > 128 µM | > 64 µM | > 64 µM | > 64 µM | > 64 µM | 67.9 µM | –
H-FLFHLIPHVIHGLVHAIHH-NH2 | 16 µM | 4 µM | 2 µM | 4 µM | 16 µM | 8 µM | 2 µM | 64 µM | 4 µM | 4 µM | 2 µM | 2 µM | 4.79 µM | 2 µM | 8 µM | 4 µM | 64 µM | 64 µM | 4 µM | 12.3 µM | selectivity ratio [27]: 0.5
H-FLFHLIPHVIHGLVKAIRK-NH2 | 4 µM | 2 µM | 1 µM | 2 µM | 16 µM | 2 µM | 1 µM | 4 µM | 2 µM | 1 µM | 1 µM | 1 µM | 3.15 µM | 1 µM | 4 µM | 2 µM | 4 µM | 8 µM | 1 µM | 4.41 µM | selectivity ratio [27]: 0.25
H-FLFKLIPKVIKGLVHAIHH-NH2 | 4 µM | 2 µM | 2 µM | 2 µM | 64 µM | 4 µM | 2 µM | 8 µM | 2 µM | 2 µM | 2 µM | 4 µM | 2.96 µM | 4 µM | 32 µM | 4 µM | 8 µM | 8 µM | 2 µM | 4.37 µM | selectivity ratio [27]: 0.5
H-FLHHLIPHVIHGLVHAIHH-NH2 | 4 µM | > 64 µM | 8 µM | 4 µM | 64 µM | 2 µM | 8 µM | 16 µM | 4 µM | 4 µM | 8 µM | 2 µM | 16.1 µM | 2 µM | 64 µM | 8 µM | > 64 µM | 16 µM | 16 µM | 70.1 µM | selectivity ratio [27]: 1
H-HLDHLIPHVIHGLVHAIHH-NH2 | 64 µM | > 64 µM | > 64 µM | > 64 µM | > 128 µM | 64 µM | > 64 µM | > 64 µM | > 64 µM | > 64 µM | > 64 µM | 8 µM | > 128 µM | 32 µM | > 128 µM | > 64 µM | > 64 µM | > 64 µM | > 64 µM | > 128 µM | –
H-HLEHLIPHVIHGLVHAIHH-NH2 | 64 µM | > 64 µM | > 64 µM | > 64 µM | > 128 µM | > 64 µM | > 64 µM | > 64 µM | > 64 µM | > 64 µM | > 64 µM | 4 µM | > 128 µM | 32 µM | > 128 µM | > 64 µM | > 64 µM | > 64 µM | > 64 µM | > 128 µM | –
H-HLHHLIPHVIHGLVHAIHH-NH2 | 8 µM | > 64 µM | > 64 µM | 16 µM | > 128 µM | 2 µM | > 64 µM | 64 µM | 32 µM | 32 µM | > 64 µM | 2 µM | 58.3 µM | 8 µM | > 128 µM | 16 µM | > 64 µM | 64 µM | > 64 µM | 66 µM | –
